Several values for one entry are separate records, joined by “and”; a condition that tells them apart may be missing. Equal entries are not always repeated. Where two headings read alike, the source gives them in different places.
Key:
EEEV = assay: microbe, parasite or virus in culture; format: cell-based, Eastern equine encephalitis virus
WEEV = assay: microbe, parasite or virus in culture; format: cell-based, Western equine encephalitis virus; settings: Vero76 cells
CHIKV = assay: microbe, parasite or virus in culture; format: cell-based, Chikungunya virus
La Crosse virus = assay: microbe, parasite or virus in culture; format: cell-based
Punta Toro virus = assay: microbe, parasite or virus in culture; format: cell-based
Lassa fever virus = assay: organism not typed; format: cell-based; settings: Vero
Junin virus = assay: microbe, parasite or virus in culture; format: cell-based; settings: for EC50: Junin virus strain Candid #1, Vero cells
[1] = system: Lymphocytic choriomeningitis virus; assay: microbe, parasite or virus in culture; format: cell-based; settings: Mammarenavirus choriomeningitidis, Vero
Tacaribe virus = assay: microbe, parasite or virus in culture; format: cell-based; settings: for EC50: Tacaribe virus strain TRVL 11573, Vero cells
Influenza A H1N1 = assay: microbe, parasite or virus in culture; format: cell-based, influenza A virus; settings: Influenza A virus, H1N1, MDCK
Flu A H3N2 = assay: microbe, parasite or virus in culture; format: cell-based, influenza A virus; settings: Influenza A virus, H3N2, MDCK
Parainfluenza virus 3 = assay: organism not typed; format: cell-based
EBOV = assay: microbe, parasite or virus in culture; format: cell-based, Ebola virus; settings: Zaire ebolavirus, Vero
Marburg virus = assay: microbe, parasite or virus in culture; format: cell-based; settings: Filoviridae, Vero
MERS = assay: microbe, parasite or virus in culture; format: cell-based, MERS coronavirus; settings: Middle East respiratory syndrome-related coronavirus, Vero 76
ZIKV = assay: microbe, parasite or virus in culture; format: cell-based, Zika virus; settings: Zika virus, Vero 76
DENV2 = assay: microbe, parasite or virus in culture; format: cell-based, Dengue virus 2; settings: Dengue virus, DENV2, Huh-7
Enterovirus-68 = assay: microbe, parasite or virus in culture; format: cell-based, EV-D68
HRV-14 = assay: microbe, parasite or virus in culture; format: cell-based, human rhinovirus
CEM = assay: EIDD-2749 cytotoxicity; format: cell-based; settings: CEM cells
Huh-7 = assay: EIDD-2749 cytotoxicity; format: cell-based, human; settings: Huh-7 cells
A-204 = assay: EIDD-2749 cytotoxicity; format: cell-based; settings: A-204 cells
BxPc3 = assay: EIDD-2749 cytotoxicity; format: cell-based; settings: BxPc3 cells
H9c-2 = assay: EIDD-2749 cytotoxicity; format: cell-based; settings: H9c-2 cells
IEC-6 = assay: EIDD-2749 cytotoxicity; format: cell-based; settings: IEC-6 cells
Vero = assay: EIDD-2749 cytotoxicity; format: cell-based, African green monkey; settings: Vero cells
Vero cells = settings: African green monkey
Vero E6 cells = settings: African green monkey
MDCK cells = settings: dog
RD cells = settings: human
Huh-7 cells = settings: human
[2] = CD-1, mouse, microsomes
[3] = male, Sprague-Dawley, rat, microsomes, pH 7.4
[4] = female, ICR (CD-1), mouse, in vivo
Plasma stability [5] = settings: mouse plasma, drug 1.00 μM
Plasma stability [6] = settings: rat plasma, drug 1.00 μM
[7] = Mouse PK (plasma, IP and oral); settings: female, ICR (CD-1)
HG23 cells = assay: Cytotoxicity (CC50) run with the norovirus assay
[8] = Mammarenavirus tacaribeense, Vero

O=c1ccn([C@@H]2O[C@](F)(CO)[C@@H](O)[C@H]2O)c(=O)[nH]1 [EIDD-2749, 4′-fluorouridine]
EC50 (EEEV; EEEV strain FL93-939, Vero76 cells): > 380 µM | EC50 (EEEV; Eastern equine encephalitis virus, Vero 76, EEEV strain FL93-939, Vero76 cells): 380 µM | EC50 (WEEV; WEEV strain California): 11.8 µM | EC50 (WEEV; Western equine encephalitis virus, Vero 76, WEEV strain California): 9.88 µM | EC50 (CHIKV): 2.05 µM and 3.42 µM | EC50 (CHIKV; Chikungunya virus, Vero 76): 1.98 µM | EC90 (CHIKV; Chikungunya virus, Vero 76): 9.12 µM | EC50 (La Crosse virus): < 0.38 µM | EC50 (Punta Toro virus): 91.2 µM | EC50 (Punta Toro virus; Punta Toro virus, Vero 76): 72.2 µM | EC50 (Lassa fever virus): 0.38 µM | EC90 (Lassa fever virus): 9 µM | EC50 (Junin virus): 1.29 µM | EC90 (Junin virus; Mammarenavirus juninense, Vero): 0.38 µM | EC50 (Junin virus; Mammarenavirus juninense, Vero): 1.86 µM | EC90 [1]: 7.22 µM | EC90 (Tacaribe virus; [8]): 0.87 µM | EC50 (Tacaribe virus; [8]): < 0.38 µM | EC50 (Tacaribe virus): 0.34 µM | EC50 (Influenza A H1N1): < 0.38 µM | EC50 (Flu A H3N2): < 0.38 µM | EC50 (Parainfluenza virus 3): 60.8 µM | EC50 (Parainfluenza virus 3; MA104): 98.8 µM | EC50 (EBOV): 1.52 µM | EC90 (EBOV): 22 µM | EC50 (Marburg virus): > 380 µM | EC50 (MERS): > 380 µM | EC90 (ZIKV): > 380 µM | EC50 (DENV2): > 380 µM | EC50 (Enterovirus-68): 11.8 µM | EC50 (Enterovirus-68; Enterovirus D, RD): 13.7 µM | EC50 (HRV-14): 1.14 µM | EC50 (HRV-14; Rhinovirus B, HRV14): 1.22 µM | CC50 (CEM): 107 µM | CC50 (Huh-7): > 400 µM | CC50 (A-204): > 400 µM | CC50 (BxPc3): > 400 µM | CC50 (H9c-2): > 400 µM | CC50 (IEC-6): 372 µM | CC50 (Vero): > 400 µM | CC50 (Vero cells): > 380 µM | CC50 (Vero E6 cells): > 380 µM | CC50 (MDCK cells): > 380 µM | CC50 (RD cells): > 380 µM | CC50 (Huh-7 cells): > 380 µM | half-life [2]: 0.45 h | half-life [3]: 0.417 h | AUC-INF ([4]; ip, 10 mg/kg): 19.6 µM·h | Cmax ([4]; ip, 10 mg/kg): 7.7 ± 2.3 µM | t1/2 ([4]; ip, 10 mg/kg): 6.3 h | AUC-INF ([4]; po, 50 mg/kg): 232.3 µM·h | Bioavailability ([4]; po, 50 mg/kg): 236% | Cmax ([4]; po, 50 mg/kg): 35.2 ± 9.7 µM | t1/2 ([4]; po, 50 mg/kg): 8.3 h | AUC-INF ([4]; po, 150 mg/kg): 392.3 µM·h | Bioavailability ([4]; po, 150 mg/kg): 133% | Cmax ([4]; po, 150 mg/kg): 43.6 ± 2.8 µM | t1/2 ([4]; po, 150 mg/kg): 8.5 h | AUC-INF ([4]; po, 500 mg/kg): 755.2 µM·h | Bioavailability ([4]; po, 500 mg/kg): 77.0% | Cmax ([4]; po, 500 mg/kg): 76 ± 15.3 µM | t1/2 ([4]; po, 500 mg/kg): 12.9 h | half-life (Plasma stability [5]): 0.617 h | half-life (Plasma stability [6]): 0.367 h | concentration at 24 h ([7]; ip, 10 mg/kg): 0.75 ± 0.1 µM | concentration at 24 h ([7]; po, 50 mg/kg): 2.8 ± 1.1 µM | concentration at 24 h ([7]; po, 150 mg/kg): 3.4 ± 1.3 µM | concentration at 24 h ([7]; po, 500 mg/kg): 9.8 ± 4.2 µM | CC50 (HG23 cells): 100 µM
